From paper PMC7686039 (Bioorganic chemistry, 2020)
Entries after “also recorded” stand apart in the source; their conditions may differ.

Legend:
[1] = target: Recombinant full-length Sirt1 (human) (UniProt Q96EB6); experiment: cross-linking
[2] = tested on: Sirt1; conditions: ref [17]; cited from earlier work
[3] = tested on: recombinant Sirt1; experiment: inhibition/competition of p53 ABP labeling of recombinant Sirt1; assay type: binding, human
[4] = tested on: Sirt1 (overexpressed) in HEK293T lysates; experiment: p53 ABP labeling of Sirt1 in HEK293T lysates overexpressing Sirt1; assay type: binding; conditions: 500 μM inhibitor; 5 μM p53 ABP, 50 μg lysate, 500 μM NAD^+
[5] = tested on: Sirt2; conditions: cited from earlier work

Sequence of UniProt Q96EB6 (Q96EB6 whole entry): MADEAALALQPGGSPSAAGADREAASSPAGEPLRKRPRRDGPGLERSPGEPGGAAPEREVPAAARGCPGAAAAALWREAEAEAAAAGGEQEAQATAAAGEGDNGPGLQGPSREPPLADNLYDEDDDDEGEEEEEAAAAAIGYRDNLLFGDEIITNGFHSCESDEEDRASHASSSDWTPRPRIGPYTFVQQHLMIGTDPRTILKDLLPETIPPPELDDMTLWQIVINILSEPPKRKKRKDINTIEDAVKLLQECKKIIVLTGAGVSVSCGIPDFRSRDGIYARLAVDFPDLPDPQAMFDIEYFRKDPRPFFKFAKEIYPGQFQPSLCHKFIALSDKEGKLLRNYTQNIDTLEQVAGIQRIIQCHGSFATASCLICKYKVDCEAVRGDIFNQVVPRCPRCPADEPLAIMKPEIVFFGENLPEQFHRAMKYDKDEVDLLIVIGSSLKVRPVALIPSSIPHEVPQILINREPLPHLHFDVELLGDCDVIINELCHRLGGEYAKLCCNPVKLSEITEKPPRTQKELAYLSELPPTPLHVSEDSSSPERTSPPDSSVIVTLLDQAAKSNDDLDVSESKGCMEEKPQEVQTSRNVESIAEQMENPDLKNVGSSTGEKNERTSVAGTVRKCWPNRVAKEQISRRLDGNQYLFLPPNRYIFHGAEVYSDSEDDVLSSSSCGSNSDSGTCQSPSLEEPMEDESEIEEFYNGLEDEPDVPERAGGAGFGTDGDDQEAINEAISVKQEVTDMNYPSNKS

8-mer thioacetyl-lysine p53 peptide, (diazirine)-RHKK(thioacetyl)LMF-(propargylglycine)-NH2
fold increase of labelling with NAD+ over without NAD+ [1]: 4 fold

N[C@@H](CCC(=O)N[C@@H](CSN=O)C(=O)NCC(=O)O)C(=O)O [GSNO, S-nitrosoglutathione]
Sirt1 deacetylase activity upon S-nitrosation [2]: complete loss of deacetylase activity | effect on p53 ABP labeling of recombinant Sirt1, GSNO pretreatment ([3]; 100 μM GSNO, presence and absence of 500 μM NAD^+): A dramatic loss of Sirt1 labeling

Cc1cc(C)nc(SCC(=O)Nc2ncc(Cc3cccc4ccccc34)s2)n1 [SirReal2]
change of p53 ABP labeling of Sirt1 [4]: no reduction in activity-based labeling of Sirt1; also recorded: a slight increase in activity-based labeling of Sirt1 | Sirt2 selectivity of SirReal2 ([5]; ref [48]): Sirt2-selective

CCCCCCCCCCCCCC(=S)NCCCCC(NC(=O)OCc1ccccc1)C(=O)Nc1ccccc1 (centres unmarked) [TM]
change of p53 ABP labeling of Sirt1 [4]: no reduction in activity-based labeling of Sirt1 | Sirt2 selectivity of TM ([5]; ref [22]): Sirt2-selective

H2N-RHKK(trifluoroacetyl)LMF-NH2 [p53tfa]
concentration needed to compete with p53 ABP labeling versus Kd ([3]; 0.2–500 μM, competitor reversible, p53 ABP labeling covalent and irreversible): exceeds the Kd values
